Reference: patent US20140024662A1, “COMPOUNDS, SCREENS, AND METHODS OF TREATMENT” (Shanghai Institute of Organic Chemistry, priority 2006, published 2014)
pEC50: −log10 of the molar value.

System: FADD-deficient Jurkat cells
Experiment: necroptosis assay: FADD-deficient Jurkat cells treated with TNFα, cell viability
Assay type: cell-based, human
Conditions: FADD-deficient Jurkat cells treated with TNFα; call rule not given here
From the text: Herein we describe the structure activity analysis of Nec-5 analogs.

SMILES | activity in the necroptosis assay, in words
N#CCSc1nc2sc3ccccc3c2c(=O)n1-c1ccc2c(c1)OCO2 [Compound 146] | potent inhibitor
N#CCSc1nc2sc3c(c2c(=O)n1-c1ccc(OC(F)(F)F)cc1)CCC3 [Compound 167] | showed some, albeit greatly reduced, activity

Same assay, conditions: effective concentration for half-maximum response; inhibition of necroptosis in FADD-deficient Jurkat cells treated with TNFα

SMILES | EC50
CSc1nc2sc3c(c2c(=O)n1-c1ccc(C)c(C)c1)CCC3 [Compound 142] | inactive
CCOc1ccc(-n2c(SCC#N)nc3sc4ccccc4c3c2=O)cc1 [Compound 145] | inactive
N#CCSc1nc2sc3ccccc3c2c(=O)n1-c1ccc(OC(F)(F)F)cc1 [Compound 147] | inactive
CN(C)c1ccc(-n2c(SCC#N)nc3sc4ccccc4c3c2=O)cc1 [Compound 148] | inactive
CCOc1ccc(-n2c(SC)nc3sc4ccccc4c3c2=O)cc1 [Compound 151] | inactive
CSc1nc2sc3ccccc3c2c(=O)n1-c1ccc2c(c1)OCO2 [Compound 152] | inactive
CSc1nc2sc3ccccc3c2c(=O)n1-c1ccc(OC(F)(F)F)cc1 [Compound 153] | inactive
Cc1sc2nc(SCC#N)n(-c3ccc(OCc4ccccc4)cc3)c(=O)c2c1C [Compound 155] | inactive
Cc1sc2nc(SCC#N)n(-c3ccc(N(C)C)cc3)c(=O)c2c1C [Compound 157] | inactive
CCOc1ccc(-n2c(SC)nc3sc(C)c(C)c3c2=O)cc1 [Compound 158] | inactive
CSc1nc2sc(C)c(C)c2c(=O)n1-c1ccc(OCc2ccccc2)cc1 [Compound 159] | inactive
CSc1nc2sc(C)c(C)c2c(=O)n1-c1ccc(OC(F)(F)F)cc1 [Compound 160] | inactive
CSc1nc2sc(C)c(C)c2c(=O)n1-c1ccc(N(C)C)cc1 [Compound 161] | inactive
N#CCSc1nc2sccc2c(=O)n1-c1ccccc1 [Compound 162] | inactive
N#CCSc1nc2sc3c(c2c(=O)n1-c1ccccc1)CCC3 [Compound 163] | inactive
CCOc1ccc(-n2c(SCC#N)nc3sc4c(c3c2=O)CCC4)cc1 [Compound 164] | inactive

SMILES | EC50
N#CCSc1nc2sc3c(c2c(=O)n1-c1ccccc1)CCCCC3 [Compound 165] | inactive
COc1ccc(-n2c(SCC#N)nc3sc4c(c3c2=O)CCC(C)C4)cc1OC (centres unmarked) [Compound 166] | inactive
N#CCSc1nc2sc3c(c2c(=O)n1-c1ccc(OC(F)(F)F)cc1)CCCCC3 [Compound 168] | inactive
COc1ccc(-n2c(SCC#N)nc3sc4c(c3c2=O)CCC4)cc1OC [Compound 169] | inactive
C=CCSc1nc2sc3c(c2c(=O)n1-c1ccccc1)CCCC3 [Compound 170] | inactive
O=c1c2c3c(sc2nc(SCc2ccccc2)n1-c1ccccc1)CCCC3 [Compound 171] | inactive
CSc1nc2sccc2c(=O)n1-c1ccccc1 [Compound 173] | inactive
COc1ccc(-n2c(SC)nc3sc4c(c3c2=O)CCC(C)C4)cc1OC (centres unmarked) [Compound 174] | inactive
CCSc1nc2sc3c(c2c(=O)n1-c1ccccc1)CCCCC3 [Compound 175] | inactive
C#CCSc1nc2sc(C)c(C)c2c(=O)n1-c1ccc2c(c1)OCO2 [Compound 176] | inactive
C#CCSc1nc2sc(C)c(CC)c2c(=O)n1-c1ccc2c(c1)OCO2 [Compound 177] | inactive
CCOc1ccc(-n2c(SC)nc3sc4c(c3c2=O)CCC4)cc1 [Compound 178] | inactive
CCc1c(C)sc2nc(SCCO)n(-c3ccc4c(c3)OCO4)c(=O)c12 [Compound 180] | inactive
CCN1CCc2c(sc3nc(SC)n(-c4ccccc4)c(=O)c23)C1 [Compound 181] | inactive
CSc1nc2sc3c(c2c(=O)n1-c1ccc(OC(F)(F)F)cc1)CCC3 [Compound 182] | inactive

Same assay, conditions: effective concentration for half-maximum response; inhibition of necroptosis in FADD-deficient Jurkat cells treated with TNFα; read-out: EC50

SMILES | pEC50
N#CCSc1nc2sc3ccccc3c2c(=O)n1-c1ccc(F)cc1 [Compound 144] | 5.51
N#CCSc1nc2sc3ccccc3c2c(=O)n1-c1ccc2c(c1)OCO2 [Compound 146] | 6.57
CSc1nc2sc3ccccc3c2c(=O)n1-c1ccc(F)cc1 [Compound 150] | 5.51
CCOc1ccc(-n2c(SCC#N)nc3sc(C)c(C)c3c2=O)cc1 [Compound 154] | 5.11
Cc1sc2nc(SCC#N)n(-c3ccc(OC(F)(F)F)cc3)c(=O)c2c1C [Compound 156] | 5.43
N#CCSc1nc2sc3c(c2c(=O)n1-c1ccc(OC(F)(F)F)cc1)CCC3 [Compound 167] | 5.43

Same assay, conditions: max viability obtained in the presence of a compound; FADD-deficient Jurkat cells treated with TNFα

SMILES | Max Prot
N#CCSc1nc2sc3ccccc3c2c(=O)n1-c1ccc2c(c1)OCO2 [Compound 146] | 100%
CN(C)c1ccc(-n2c(SCC#N)nc3sc4ccccc4c3c2=O)cc1 [Compound 148] | inactive
CCOc1ccc(-n2c(SCC#N)nc3sc(C)c(C)c3c2=O)cc1 [Compound 154] | 97%
Cc1sc2nc(SCC#N)n(-c3ccc(OC(F)(F)F)cc3)c(=O)c2c1C [Compound 156] | 63%
N#CCSc1nc2sc3c(c2c(=O)n1-c1ccc(OC(F)(F)F)cc1)CCC3 [Compound 167] | 70%
